Experimental data taken from US9815852B2, “Macrocyclic compounds and methods of treatment” (University of Florida Research Foundation, Inc., priority 2014, dated 2017).
Like-named read-outs stand apart in the source and are kept apart here.

Assays:
Assay type in all cases: biochemical
HDAC8 = molecular target: T1, HDAC8 (Homo sapiens, UniProt Q9BY41); test: HDAC enzyme inhibitory assay (fluorescence), HDAC8
T1 sequence (Q9BY41 1-377): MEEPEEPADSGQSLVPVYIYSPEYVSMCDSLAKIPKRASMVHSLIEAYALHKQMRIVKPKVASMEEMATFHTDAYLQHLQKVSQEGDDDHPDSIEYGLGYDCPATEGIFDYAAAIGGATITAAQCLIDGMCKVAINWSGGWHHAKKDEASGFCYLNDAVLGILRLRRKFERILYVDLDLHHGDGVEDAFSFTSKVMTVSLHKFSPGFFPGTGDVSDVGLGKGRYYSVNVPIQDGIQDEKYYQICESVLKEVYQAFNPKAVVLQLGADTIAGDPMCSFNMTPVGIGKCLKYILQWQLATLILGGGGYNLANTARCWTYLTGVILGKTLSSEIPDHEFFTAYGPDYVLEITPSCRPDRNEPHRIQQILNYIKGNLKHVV
Experimental: (§1) Enzyme inhibitory assays were carried out essentially as follows. In brief, compounds were incubated with the appropriate HDAC enzyme, the appropriate HDAC substrate, bovine serum albumin, and HDAC buffer. Duplicate reactions were carried out at 37° C. for 30 min. The reactions were quenched at the end of the incubation period with the addition of HDAC developer. Reactions were further incubated for 15 min at room temperature prior to fluorescence measurement (ex 360 nm/em 460 nm). The % inhibitory activity was calculated according to the equation (F−Fb)/(Ft−Fb), where F—fluorescent intensity of compound treated wells, Fb—fluorescent intensity of blank wells, Ft—fluorescent intensity of solvent control wells. IC50 values were calculated using GraphPad Prism.

HDAC1 = HDAC1 (Homo sapiens, UniProt Q13547); test: HDAC enzyme inhibitory assay (fluorescence), HDAC1
HDAC1, sequence (Q13547 whole entry, species assumed): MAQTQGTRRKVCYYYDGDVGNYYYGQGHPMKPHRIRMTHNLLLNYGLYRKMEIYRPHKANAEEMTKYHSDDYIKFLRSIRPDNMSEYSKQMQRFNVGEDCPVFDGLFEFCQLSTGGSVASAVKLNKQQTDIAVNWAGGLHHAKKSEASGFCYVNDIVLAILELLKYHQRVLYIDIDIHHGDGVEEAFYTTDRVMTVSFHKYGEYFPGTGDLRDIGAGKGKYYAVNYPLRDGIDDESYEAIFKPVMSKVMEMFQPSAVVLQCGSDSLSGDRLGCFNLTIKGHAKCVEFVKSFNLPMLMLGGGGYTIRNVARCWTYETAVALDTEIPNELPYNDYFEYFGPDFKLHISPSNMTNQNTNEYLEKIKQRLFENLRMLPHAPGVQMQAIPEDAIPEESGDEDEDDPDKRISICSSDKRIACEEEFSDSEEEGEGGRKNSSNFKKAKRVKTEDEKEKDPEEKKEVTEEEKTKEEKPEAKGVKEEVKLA
Experimental: as §1

HDAC2 = HDAC2 (Homo sapiens, UniProt Q92769); test: HDAC enzyme inhibitory assay (fluorescence), HDAC2; settings: for IC50 (HDAC2)/IC50 (HDAC1): selectivity ratio, table
HDAC2, sequence (Q92769 whole entry, species assumed): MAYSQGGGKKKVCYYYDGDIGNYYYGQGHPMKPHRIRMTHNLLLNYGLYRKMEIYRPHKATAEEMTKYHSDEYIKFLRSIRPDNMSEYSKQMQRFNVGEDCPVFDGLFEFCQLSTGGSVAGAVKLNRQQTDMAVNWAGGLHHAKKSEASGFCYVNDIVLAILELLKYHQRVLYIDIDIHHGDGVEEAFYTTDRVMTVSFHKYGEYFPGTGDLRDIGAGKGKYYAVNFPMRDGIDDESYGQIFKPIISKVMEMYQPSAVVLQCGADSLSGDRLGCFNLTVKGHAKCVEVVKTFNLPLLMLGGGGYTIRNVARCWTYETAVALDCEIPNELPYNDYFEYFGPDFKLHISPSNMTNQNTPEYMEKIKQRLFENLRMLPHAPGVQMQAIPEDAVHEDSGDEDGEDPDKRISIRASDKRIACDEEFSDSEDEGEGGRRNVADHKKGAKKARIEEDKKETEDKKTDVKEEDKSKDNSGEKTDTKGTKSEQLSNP
Experimental: as §1

HDAC3 = HDAC3 (Homo sapiens, UniProt O15379); test: HDAC enzyme inhibitory assay (fluorescence), HDAC3; settings: for IC50 (HDAC3)/IC50 (HDAC1): selectivity ratio, table
HDAC3, sequence (O15379 whole entry, species assumed): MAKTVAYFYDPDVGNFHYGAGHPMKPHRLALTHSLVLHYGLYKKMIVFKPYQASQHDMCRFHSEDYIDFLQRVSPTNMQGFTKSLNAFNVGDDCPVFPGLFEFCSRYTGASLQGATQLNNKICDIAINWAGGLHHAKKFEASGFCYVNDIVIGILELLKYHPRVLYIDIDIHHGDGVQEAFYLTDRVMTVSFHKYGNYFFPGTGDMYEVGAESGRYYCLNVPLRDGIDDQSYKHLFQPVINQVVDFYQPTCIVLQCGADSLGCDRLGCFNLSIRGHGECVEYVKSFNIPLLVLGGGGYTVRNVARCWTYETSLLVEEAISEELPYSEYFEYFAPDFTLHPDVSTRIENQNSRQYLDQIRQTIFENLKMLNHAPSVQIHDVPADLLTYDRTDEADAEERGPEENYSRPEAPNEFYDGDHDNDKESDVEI
HDAC3, sequence (Q9Y618 395-489 partner limits assumed, species assumed): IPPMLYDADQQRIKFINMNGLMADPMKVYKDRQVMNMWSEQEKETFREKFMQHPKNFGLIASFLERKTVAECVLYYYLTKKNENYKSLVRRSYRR
Experimental: as §1

class I HDACs = test: HDAC enzyme inhibitory assay, class I HDACs overall; settings: class I HDACs tested (HDAC1, 2, 3, 8)
Experimental: as §1, with “Reactions were further incubated for 15 min at room temperature prior to fluorescence measurement (ex 360 nm/em 460 nm).” left out

[1] = read-out: IC50 HDAC8, 'No Inhibition up to 1 μM', no inhibition up to highest concentration 1 μM
[2] = no inhibition up to highest concentration 1 μM

| SMILES | IC50 (HDAC8; [1]) [nM] | IC50 (HDAC1) [nM] | IC50 (HDAC8; [2]) [nM] | IC50 (HDAC2) [nM] | IC50 (HDAC2)/IC50 (HDAC1) (HDAC2) | IC50 (HDAC3) [nM] | IC50 (HDAC3)/IC50 (HDAC1) (HDAC3) | also measured |
| --- | --- | --- | --- | --- | --- | --- | --- | --- |
| CC12CSC(=N1)c1csc(n1)CNC(=O)CC(C=CCCS)OC(=O)C(Cc1ccccc1)NC2=O (centres unmarked) [Compound 3] | > 1000 | 0.29 | – | – | – | – | – | – |
| C[C@@]12CSC(=N1)c1csc(n1)CNC(=O)C[C@@H](/C=C/CCS)OC(=O)[C@H](Cc1ccc(O)cc1)NC2=O [Compound 4] | – | – | > 1000 | – | – | – | – | – |
| CC12CSC(=N1)c1csc(n1)CNC(=O)CC(C=CCCS)OC(=O)C(Cc1c[nH]cn1)NC2=O (centres unmarked) [Compound 5] | > 1000 | 0.2 | – | 1.4 | 7.0 | 1.1 | 5.5 | selectivity towards HDAC1 over HDAC2 (HDAC2): 7 fold; selectivity towards HDAC1 over HDAC3 (HDAC3): 5.5 fold |
| CC12CSC(=N1)c1csc(n1)CNC(=O)CC(C=CCCS)OC(=O)C(CC(=O)O)NC2=O (centres unmarked) [Compound 6] | > 1000 | 39 | – | – | – | – | – | HDAC inhibition, potency in words (class I HDACs): significant reduction in activity |
| C[C@@]12CSC(=N1)c1csc(n1)CNC(=O)C[C@@H](/C=C/CCS)OC(=O)[C@H](CCN)NC2=O [Compound 7] | – | – | > 1000 | – | – | – | – | – |
| C[C@@]12CSC(=N1)c1csc(n1)CNC(=O)C[C@@H](/C=C/CCS)OC(=O)[C@H](CCCN)NC2=O [Compound 8] | – | – | > 1000 | – | – | – | – | – |
| CC(C)(C)OC(=O)NCCC1NC(=O)C2(C)CSC(=N2)c2csc(n2)CNC(=O)CC(C=CCCS)OC1=O (centres unmarked) [Compound 9] | > 1000 | 2.3 | – | 3.1 | 1.4 | 4.2 | 1.8 | – |
| CC(C)(C)OC(=O)NCCCC1NC(=O)C2(C)CSC(=N2)c2csc(n2)CNC(=O)CC(C=CCCS)OC1=O (centres unmarked) [Compound 10] | – | 0.96 | – | 1.4 | 1.5 | 1.8 | 1.9 | IC50 (HDAC8; read-out: IC50 (nM) HDAC8): 790 nM; HDAC inhibition, potency in words (class I HDACs): more potent than 9 |
